According to PubChem BioAssay (NCI):
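Assay format: 96-well plates, 48-hour exposure. The concentration for 50% growth inhibition is given as GI50. The concentration for full growth arrest is given as TGI.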

How the values were obtained:
Assay in all cases: NCI-60 cell line screen, 48 h
786-0 renal = system: 786-0 renal
A498 renal = system: A498 renal
A549 NSCLC = system: A549 NSCLC
ACHN renal = system: ACHN renal
BT-549 breast = system: BT-549 breast
CAKI-1 renal = system: CAKI-1 renal
CCRF-CEM leukemia = system: CCRF-CEM leukemia
COLO 205 colon = system: COLO 205 colon
DU-145 prostate = system: DU-145 prostate
EKVX NSCLC = system: EKVX NSCLC
HCC-2998 colon = system: HCC-2998 colon
HCT-116 colon = system: HCT-116 colon
HCT-15 colon = system: HCT-15 colon
HL-60(TB) leukemia = system: HL-60(TB) leukemia
HOP-62 NSCLC = system: HOP-62 NSCLC
HOP-92 NSCLC = system: HOP-92 NSCLC
HS 578T breast = system: HS 578T breast
HT29 colon = system: HT29 colon
IGROV1 ovarian = system: IGROV1 ovarian
K-562 leukemia = system: K-562 leukemia
KM12 colon = system: KM12 colon
LOX IMVI melanoma = system: LOX IMVI melanoma
M14 melanoma = system: M14 melanoma
MALME-3M melanoma = system: MALME-3M melanoma
MCF7 breast = system: MCF7 breast
MDA-MB-231 breast = system: MDA-MB-231 breast
MDA-MB-435 = system: MDA-MB-435
MOLT-4 leukemia = system: MOLT-4 leukemia
NCI-H226 lung = system: NCI-H226 lung
NCI-H23 lung = system: NCI-H23 lung
NCI-H460 lung = system: NCI-H460 lung
NCI-H522 lung = system: NCI-H522 lung
NCI/ADR-RES ovarian = system: NCI/ADR-RES ovarian
OVCAR-3 ovarian = system: OVCAR-3 ovarian
OVCAR-4 ovarian = system: OVCAR-4 ovarian
OVCAR-5 ovarian = system: OVCAR-5 ovarian
OVCAR-8 ovarian = system: OVCAR-8 ovarian
PC-3 prostate = system: PC-3 prostate
RPMI-8226 leukemia = system: RPMI-8226 leukemia
RXF 393 renal = system: RXF 393 renal
SF-268 CNS = system: SF-268 CNS
SF-295 CNS = system: SF-295 CNS
SF-539 CNS = system: SF-539 CNS
SK-MEL-2 melanoma = system: SK-MEL-2 melanoma
SK-MEL-28 melanoma = system: SK-MEL-28 melanoma
SK-MEL-5 melanoma = system: SK-MEL-5 melanoma
SK-OV-3 ovarian = system: SK-OV-3 ovarian
SN12C renal = system: SN12C renal
SNB-19 CNS = system: SNB-19 CNS
SNB-75 CNS = system: SNB-75 CNS
SW-620 colon = system: SW-620 colon
T-47D breast = system: T-47D breast
TK-10 renal = system: TK-10 renal
U251 CNS = system: U251 CNS
UACC-257 melanoma = system: UACC-257 melanoma
UACC-62 melanoma = system: UACC-62 melanoma
UO-31 renal = system: UO-31 renal

**Q.** `CC(=O)/C(=C\c1c(-c2ccccc2)[nH]c2ccccc12)S(C)(=O)=O` was tested. Which GI50 (786-0 renal) did it give?
**A.** 3.44 µM

**Q.** What about the TGI (786-0 renal) of the same compound?
**A.** > 35.8 µM

**Q.** What about the GI50 (A498 renal) of the same compound?
**A.** 3.88 µM

**Q.** And the TGI (A498 renal)?
**A.** > 54.8 µM

**Q.** What about the GI50 (A549 NSCLC) of the same compound?
**A.** 7.14 µM

**Q.** And the TGI (A549 NSCLC)?
**A.** > 100 µM

**Q.** What about the GI50 (ACHN renal) of the same compound?
**A.** 5.64 µM

**Q.** What about the TGI (ACHN renal) of the same compound?
**A.** > 100 µM

**Q.** And the GI50 (BT-549 breast)?
**A.** 2.77 µM

**Q.** What about the TGI (BT-549 breast) of the same compound?
**A.** > 100 µM

**Q.** What about the GI50 (CAKI-1 renal) of the same compound?
**A.** 5.62 µM

**Q.** And the TGI (CAKI-1 renal)?
**A.** > 100 µM

**Q.** What about the GI50 (CCRF-CEM leukemia) of the same compound?
**A.** 4.74 µM

**Q.** And the TGI (CCRF-CEM leukemia)?
**A.** > 100 µM

**Q.** What about the GI50 (COLO 205 colon) of the same compound?
**A.** 2.7 µM

**Q.** And the TGI (COLO 205 colon)?
**A.** 13.5 µM

**Q.** And the GI50 (DU-145 prostate)?
**A.** 3.47 µM

**Q.** And the TGI (DU-145 prostate)?
**A.** 15.5 µM

**Q.** What about the GI50 (EKVX NSCLC) of the same compound?
**A.** 6.34 µM

**Q.** What about the TGI (EKVX NSCLC) of the same compound?
**A.** > 100 µM

**Q.** And the GI50 (HCC-2998 colon)?
**A.** 6.61 µM

**Q.** What about the TGI (HCC-2998 colon) of the same compound?
**A.** 33.9 µM

**Q.** And the GI50 (HCT-116 colon)?
**A.** 2.86 µM

**Q.** And the TGI (HCT-116 colon)?
**A.** > 100 µM

**Q.** And the GI50 (HCT-15 colon)?
**A.** 1.93 µM

**Q.** And the TGI (HCT-15 colon)?
**A.** > 100 µM

**Q.** What about the GI50 (HL-60(TB) leukemia) of the same compound?
**A.** 3.51 µM

**Q.** And the TGI (HL-60(TB) leukemia)?
**A.** 20.9 µM

**Q.** What about the GI50 (HOP-62 NSCLC) of the same compound?
**A.** 7.95 µM

**Q.** What about the TGI (HOP-62 NSCLC) of the same compound?
**A.** > 43.5 µM

**Q.** And the GI50 (HOP-92 NSCLC)?
**A.** 3.11 µM

**Q.** And the TGI (HOP-92 NSCLC)?
**A.** > 75 µM

**Q.** And the GI50 (HS 578T breast)?
**A.** 1.55 µM

**Q.** What about the TGI (HS 578T breast) of the same compound?
**A.** 4.88 µM

**Q.** And the GI50 (HT29 colon)?
**A.** 1.6 µM

**Q.** What about the TGI (HT29 colon) of the same compound?
**A.** > 40.1 µM

**Q.** And the GI50 (IGROV1 ovarian)?
**A.** 6.88 µM

**Q.** What about the TGI (IGROV1 ovarian) of the same compound?
**A.** > 54.9 µM

**Q.** What about the GI50 (K-562 leukemia) of the same compound?
**A.** 0.671 µM

**Q.** And the TGI (K-562 leukemia)?
**A.** > 100 µM

**Q.** And the GI50 (KM12 colon)?
**A.** 2.42 µM

**Q.** And the TGI (KM12 colon)?
**A.** 19.2 µM

**Q.** And the GI50 (LOX IMVI melanoma)?
**A.** 3.36 µM

**Q.** What about the TGI (LOX IMVI melanoma) of the same compound?
**A.** > 66.3 µM

**Q.** What about the GI50 (M14 melanoma) of the same compound?
**A.** 1.64 µM

**Q.** What about the TGI (M14 melanoma) of the same compound?
**A.** 5.58 µM

**Q.** And the GI50 (MALME-3M melanoma)?
**A.** 4.72 µM

**Q.** And the TGI (MALME-3M melanoma)?
**A.** > 100 µM

**Q.** What about the GI50 (MCF7 breast) of the same compound?
**A.** 2.66 µM

**Q.** What about the TGI (MCF7 breast) of the same compound?
**A.** > 100 µM

**Q.** What about the GI50 (MDA-MB-231 breast) of the same compound?
**A.** 4.82 µM

**Q.** What about the TGI (MDA-MB-231 breast) of the same compound?
**A.** > 73.9 µM

**Q.** What about the GI50 (MDA-MB-435) of the same compound?
**A.** 0.313 µM

**Q.** What about the TGI (MDA-MB-435) of the same compound?
**A.** 1.97 µM

**Q.** And the GI50 (MOLT-4 leukemia)?
**A.** 4.24 µM

**Q.** What about the TGI (MOLT-4 leukemia) of the same compound?
**A.** > 100 µM

**Q.** And the GI50 (NCI-H226 lung)?
**A.** 13 µM

**Q.** What about the TGI (NCI-H226 lung) of the same compound?
**A.** > 100 µM

**Q.** What about the GI50 (NCI-H23 lung) of the same compound?
**A.** 4 µM

**Q.** And the TGI (NCI-H23 lung)?
**A.** > 100 µM

**Q.** And the GI50 (NCI-H460 lung)?
**A.** 2.78 µM

**Q.** And the TGI (NCI-H460 lung)?
**A.** 10.7 µM

**Q.** And the GI50 (NCI-H522 lung)?
**A.** 3.27 µM

**Q.** And the TGI (NCI-H522 lung)?
**A.** > 25.7 µM

**Q.** What about the GI50 (NCI/ADR-RES ovarian) of the same compound?
**A.** 1.8 µM

**Q.** And the TGI (NCI/ADR-RES ovarian)?
**A.** 8.97 µM

**Q.** What about the GI50 (OVCAR-3 ovarian) of the same compound?
**A.** 2.33 µM

**Q.** And the TGI (OVCAR-3 ovarian)?
**A.** 5.35 µM

**Q.** And the GI50 (OVCAR-4 ovarian)?
**A.** 3.71 µM

**Q.** What about the TGI (OVCAR-4 ovarian) of the same compound?
**A.** > 100 µM

**Q.** And the GI50 (OVCAR-5 ovarian)?
**A.** 13.9 µM

**Q.** What about the TGI (OVCAR-5 ovarian) of the same compound?
**A.** > 100 µM

**Q.** And the GI50 (OVCAR-8 ovarian)?
**A.** 5.09 µM

**Q.** What about the TGI (OVCAR-8 ovarian) of the same compound?
**A.** > 100 µM

**Q.** And the GI50 (PC-3 prostate)?
**A.** 4.46 µM

**Q.** What about the TGI (PC-3 prostate) of the same compound?
**A.** > 100 µM

**Q.** What about the GI50 (RPMI-8226 leukemia) of the same compound?
**A.** 2.95 µM

**Q.** And the TGI (RPMI-8226 leukemia)?
**A.** 21.9 µM

**Q.** What about the GI50 (RXF 393 renal) of the same compound?
**A.** 2.56 µM

**Q.** And the TGI (RXF 393 renal)?
**A.** 8.54 µM

**Q.** What about the GI50 (SF-268 CNS) of the same compound?
**A.** 4.14 µM

**Q.** And the TGI (SF-268 CNS)?
**A.** > 93.9 µM

**Q.** And the GI50 (SF-295 CNS)?
**A.** 3.85 µM

**Q.** What about the TGI (SF-295 CNS) of the same compound?
**A.** > 61.4 µM

**Q.** And the GI50 (SF-539 CNS)?
**A.** 1.89 µM

**Q.** What about the TGI (SF-539 CNS) of the same compound?
**A.** 4.66 µM

**Q.** What about the GI50 (SK-MEL-2 melanoma) of the same compound?
**A.** 5.19 µM

**Q.** What about the TGI (SK-MEL-2 melanoma) of the same compound?
**A.** > 24.2 µM

**Q.** And the GI50 (SK-MEL-28 melanoma)?
**A.** 3.34 µM

**Q.** What about the TGI (SK-MEL-28 melanoma) of the same compound?
**A.** > 100 µM

**Q.** And the GI50 (SK-MEL-5 melanoma)?
**A.** 1.87 µM

**Q.** What about the TGI (SK-MEL-5 melanoma) of the same compound?
**A.** > 43 µM

**Q.** What about the GI50 (SK-OV-3 ovarian) of the same compound?
**A.** 3.96 µM

**Q.** And the TGI (SK-OV-3 ovarian)?
**A.** > 32.5 µM

**Q.** What about the GI50 (SN12C renal) of the same compound?
**A.** 6.06 µM

**Q.** What about the TGI (SN12C renal) of the same compound?
**A.** > 100 µM

**Q.** What about the GI50 (SNB-19 CNS) of the same compound?
**A.** 3.3 µM

**Q.** What about the TGI (SNB-19 CNS) of the same compound?
**A.** > 58.7 µM

**Q.** And the GI50 (SNB-75 CNS)?
**A.** 1.45 µM

**Q.** And the TGI (SNB-75 CNS)?
**A.** 5.2 µM

**Q.** And the GI50 (SW-620 colon)?
**A.** 2.08 µM

**Q.** And the TGI (SW-620 colon)?
**A.** > 100 µM

**Q.** What about the GI50 (T-47D breast) of the same compound?
**A.** 2.58 µM

**Q.** What about the TGI (T-47D breast) of the same compound?
**A.** 26 µM

**Q.** And the GI50 (TK-10 renal)?
**A.** 8.21 µM

**Q.** What about the TGI (TK-10 renal) of the same compound?
**A.** > 100 µM

**Q.** What about the GI50 (U251 CNS) of the same compound?
**A.** 2.79 µM

**Q.** What about the TGI (U251 CNS) of the same compound?
**A.** > 63 µM

**Q.** What about the GI50 (UACC-257 melanoma) of the same compound?
**A.** 24.1 µM

**Q.** What about the TGI (UACC-257 melanoma) of the same compound?
**A.** > 100 µM

**Q.** What about the GI50 (UACC-62 melanoma) of the same compound?
**A.** 3.17 µM

**Q.** What about the TGI (UACC-62 melanoma) of the same compound?
**A.** > 100 µM

**Q.** And the GI50 (UO-31 renal)?
**A.** 5.3 µM

**Q.** What about the TGI (UO-31 renal) of the same compound?
**A.** > 100 µM
